Biological target: T1, DLK (Homo sapiens, UniProt Q12852)
T1 sequence (Q12852 1-520): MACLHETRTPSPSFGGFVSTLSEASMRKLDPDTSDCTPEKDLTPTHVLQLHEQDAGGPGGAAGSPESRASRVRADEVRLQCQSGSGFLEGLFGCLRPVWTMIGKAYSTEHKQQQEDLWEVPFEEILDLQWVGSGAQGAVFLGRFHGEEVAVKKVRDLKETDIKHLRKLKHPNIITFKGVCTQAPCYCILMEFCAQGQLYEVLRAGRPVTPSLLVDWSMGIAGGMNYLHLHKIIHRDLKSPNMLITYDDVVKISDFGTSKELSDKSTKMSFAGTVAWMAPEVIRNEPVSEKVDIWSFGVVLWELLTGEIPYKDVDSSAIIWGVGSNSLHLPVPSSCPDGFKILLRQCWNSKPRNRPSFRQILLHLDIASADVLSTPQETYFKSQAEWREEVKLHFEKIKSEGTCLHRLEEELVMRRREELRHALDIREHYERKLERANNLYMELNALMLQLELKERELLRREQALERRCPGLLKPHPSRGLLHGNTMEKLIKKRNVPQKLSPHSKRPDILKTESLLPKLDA
Details: read-out: DLK (Ki) μM; TR-FRET; 5 nM GST-tagged DLK (catalytic domain aa 1-520), 40 nM HIS-MKK4 K131M substrate, 30 μM ATP, 60 minutes

Ki | SMILES
0.0012 µM | Nc1ncc(-c2cc([C@H]3[C@@H]4CN(C5COC5)C[C@@H]43)n(C3CCC3)n2)cc1C(F)(F)F [Compound 148, 5-(1-cyclobutyl-5-((1R,5S,6r)-3-(oxetan-3-yl)-3-azabicyclo[3.1.0]hexan-6-yl)-1H-pyrazol-3-yl)-3-(trifluoromethyl)pyridin-2-amine]
0.00017 µM | Nc1ncc(-c2cc([C@H]3[C@@H]4CN(C5COC5)C[C@@H]43)n(CC3CC3)n2)cc1C(F)(F)F [Compound 152, 5-(1-(cyclopropylmethyl)-5-((1R,5S,6r)-3-(oxetan-3-yl)-3-azabicyclo[3.1.0]hexan-6-yl)-1H-pyrazol-3-yl)-3-(tri-fluoromethyl)pyridin-2-amine]
0.025 µM | Nc1ncc(-c2cc([C@H]3[C@@H]4CN(C5COC5)C[C@@H]43)n(CC3CC3)n2)cc1Cl [Compound 154, 3-chloro-5-(1-(cyclopropylmethyl)-5-((1R,5S,6r)-3-(oxetan-3-yl)-3-azabicyclo[3.1.0]hexan-6-yl)-1H-pyrazol-3-yl)pyridin-2-amine]
0.0081 µM | Nc1ncc(-c2cc([C@H]3[C@@H]4CN(C5COC5)C[C@@H]43)n(CC3CCC3)n2)cc1C(F)(F)F [Compound 160, 5-(1-(cyclobutylmethyl)-5-((1R,5S,6r)-3-(oxetan-3-yl)-3-azabicyclo[3.1.0]hexan-6-yl)-1H-pyrazol-3-yl)-3-(tri-fluoromethyl)pyridin-2-amine]
0.021 µM | Nc1ncc(-c2cc([C@H]3[C@@H]4CN(C5COC5)C[C@@H]43)n(CC3CC3)n2)cc1C1CC1 [Compound 161, 3-cyclopropyl-5-(1-(cyclopropylmeth-yl)-5-((1R,5S,6r)-3-(oxetan-3-yl)-3-azabicyclo[3.1.0]hexan-6-yl)-1H-pyrazol-3-yl)pyridin-2-amine]
0.066 µM | Nc1ncc(-c2cc([C@H]3[C@@H]4CN(C5COC5)C[C@@H]43)n(CC3CCC3)n2)cc1C1CC1 [Compound 162, 5-(1-(cyclobutylmethyl)-5-((1R,5S,6r)-3-(oxetan-3-yl)-3-azabicyclo[3.1.0]hexan-6-yl)-1H-pyrazol-3-yl)-3-cyclopropylpyridin-2-amine]
0.013 µM | Nc1ncc(-c2cc([C@H]3[C@@H]4CN(C5COC5)C[C@@H]43)n(C3CCC3)n2)cc1OC(F)(F)F [Compound 163, 5-(1-cyclobutyl-5-((1R,5S,6r)-3-(oxe-tan-3-yl)-3-azabicyclo[3.1.0]hexan-6-yl)-1H-pyrazol-3-yl)-3-(trifluorometh-oxy)pyridin-2-amine]
0.013 µM | Nc1ncc(-c2cc([C@H]3[C@@H]4CN(C5COC5)C[C@@H]43)n(CC3CCC3)n2)cc1OC(F)F [Compound 164, 5-(1-(cyclobutylmethyl)-5-((1R,5S,6r)-3-(oxetan-3-yl)-3-azabicyclo[3.1.0]hexan-6-yl)-1H-pyrazol-3-yl)-3-(di-fluoromethoxy)pyridin-2-amine]
0.027 µM | CC(C)(C)n1nc(-c2cnc(N)c(C(F)(F)F)c2)cc1[C@H]1[C@@H]2CN(C3COC3)C[C@@H]21 [Compound 167, 5-(1-(tert-butyl)-5-((1R,5S,6r)-3-(oxe-tan-3-yl)-3-azabicyclo[3.1.0]hexan-6-yl)-1H-pyrazol-3-yl)-3-(trifluorometh-yl)pyridin-2-amine]
0.0047 µM | Nc1ncc(-c2cc([C@H]3[C@@H]4CN(C5COC5)C[C@@H]43)n(C3CC3)n2)cc1C(F)(F)F [Compound 168, 5-(1-cyclopropyl-5-((1R,5S,6r)-3-(oxe-tan-3-yl)-3-azabicyclo[3.1.0]hexan-6-yl)-1H-pyrazol-3-yl)-3-(trifluoro-methyl)pyridin-2-amine]
0.041 µM | Nc1ncc(-c2cc([C@H]3[C@@H]4CN(C5COC5)C[C@@H]43)n(CC3CC3)n2)cc1C(F)F [Compound 169, 5-(1-(cyclopropylmethyl)-5-((1R,5S,6r)-3-(oxetan-3-yl)-3-azabicyclo[3.1.0]hexan-6-yl)-1H-pyrazol-3-yl)-3-(di-fluoromethyl)pyridin-2-amine]
0.0039 µM | Nc1ncc(-c2cc([C@H]3[C@@H]4CN(C5COC5)C[C@@H]43)n(CC3CC3)n2)cc1OC(F)F [Compound 173, 5-(1-(cyclopropylmethyl)-5-((1R,5S,6r)-3-(oxetan-3-yl)-3-azabicyclo[3.1.0]hexan-6-yl)-1H-pyrazol-3-yl)-3-(difluoromethoxy)pyridin-2-amine]
0.0016 µM | Nc1ncc(-c2cc([C@H]3[C@@H]4CN(C5COC5)C[C@@H]43)n(CC(F)(F)F)n2)cc1C(F)(F)F [Compound 174, 5-(5-((1R,5S,6r)-3-(oxetan-3-yl)-3-azabicyclo[3.1.0]hexan-6-yl)-1-(2,2,2-trifluoroethyl)-1H-pyrazol-3-yl)-3-(trifluoromethyl)pyridin-2-amine]

More lines, now with the values behind:

SMILES | Ki
CC(C)n1nc(-c2cnc(N)c(C#N)c2)cc1[C@H]1[C@@H]2CN(C3COC3)C[C@@H]21 [Compound 144, 2-amino-5-(1-isopropyl-5-((1R,5 S,6r)-3-(oxetan-3-yl)-3-azabicyclo[3.1.0]hexan-6-yl)-1H-pyrazol-3-yl)nicotinonitrile] | 0.022 µM
COc1cc(-c2cc([C@H]3[C@@H]4CN(C5COC5)C[C@@H]43)n(C(C)C)n2)cnc1N [Compound 145, 5-(1-isopropyl-5-((1R,5S,6r)-3-(oxetan-3-yl)-3-azabicyclo[3.1.0]hexan-6-yl)-1H-pyrazol-3-yl)-3-methoxy-pyridin-2-amine] | 0.0074 µM
CC(C)Oc1cc(-c2cc([C@H]3[C@@H]4CN(C5COC5)C[C@@H]43)n(C(C)C)n2)cnc1N [Compound 146, 3-isopropoxy-5-(1-isopropyl-5-((1R,5S,6r)-3-(oxetan-3-yl)-3-azabicyclo [3.1.0]hexan-6-yl)-1H-pyrazol-3-yl) pyridin-2-amine] | 0.014 µM
Nc1ncc(-c2cc([C@H]3[C@@H]4CN(C5COC5)C[C@@H]43)n(C3CCC3)n2)cc1Cl [Compound 147, 3-chloro-5-(1-cyclobutyl-5-((1R,5S,6r)-3-(oxetan-3-yl)-3-azabicyclo[3.1.0]hexan-6-yl)-1H-pyrazol-3-yl)pyri-din-2-amine] | 0.018 µM
Nc1ncc(-c2cc([C@H]3[C@@H]4CN(C5COC5)C[C@@H]43)n(C3CCC3)n2)cc1OC(F)F [Compound 151, 5-(1-cyclobutyl-5-((1R,5S,6r)-3-(oxe-tan-3-yl)-3-azabicyclo[3.1.0]hexan-6-yl)-1H-pyrazol-3-yl)-3-(difluorometh-oxy)pyridin-2-amine] | 0.0055 µM
Nc1ncc(-c2cc([C@H]3[C@@H]4CN(C5COC5)C[C@@H]43)n(C3CCC3)n2)cc1C1CC1 [Compound 153, 5-(1-cyclobutyl-5-((1R,5S,6r)-3-(oxe-tan-3-yl)-3-azabicyclo[3.1.0]hexan-6-yl)-1H-pyrazol-3-yl)-3-cyclopropyl-pyridin-2-amine] | 0.011 µM
CS(=O)(=O)c1cc(-c2cc([C@H]3[C@@H]4CN(C5COC5)C[C@@H]43)n(C3CCCC3)n2)cnc1N [Compound 155, 5-(1-cyclopentyl-5-((1R,5S,6r)-3-(oxe-tan-3-yl)-3-azabicyclo[3.1.0]hexan-6-yl)-1H-pyrazol-3-yl)-3-(methyl-sulfonyl)pyridin-2-amine] | 0.3 µM
CC(C)Oc1cc(-c2cc([C@H]3[C@@H]4CN(C5COC5)C[C@@H]43)n(C3CCCC3)n2)cnc1N [Compound 156, 5-(1-cyclopentyl-5-((1R,5S,6r)-3-(oxe-tan-3-yl)-3-azabicyclo[3.1.0]hexan-6-yl)-1H-pyrazol-3-yl)-3-isopropoxy-pyridin-2-amine] | 0.032 µM
COc1cc(-c2cc([C@H]3[C@@H]4CN(C5COC5)C[C@@H]43)n(C3CCCC3)n2)cnc1N [Compound 157, 5-(1-cyclopentyl-5-((1R,5S,6r)-3-(oxe-tan-3-yl)-3-azabicyclo[3.1.0]hexan-6-yl)-1H-pyrazol-3-yl)-3-methoxy-pyridin-2-amine] | 0.035 µM
CC(C)n1nc(-c2cnc(N)c(C(F)F)c2)cc1[C@H]1[C@@H]2CN(C3COC3)C[C@@H]21 [Compound 158, 3-(difluoromethyl)-5-(1-isopropyl-5-((1R,5S,6r)-3-(oxetan-3-yl)-3-azabi-cyclo[3.1.0]hexan-6-yl)-1H-pyrazol-3-yl)pyridin-2-amine] | 0.035 µM
CC(C)n1nc(-c2cnc(N)c(OC(F)(F)F)c2)cc1[C@H]1[C@@H]2CN(C3COC3)C[C@@H]21 [Compound 165, 5-(1-isopropyl-5-((1R,5S,6r)-3-(oxe-tan-3-yl)-3-azabicyclo[3.1.0]hexan-6-yl)-1H-pyrazol-3-yl)-3-(trifluorometh-oxy)pyridin-2-amine] | 0.0019 µM
Nc1ncc(-c2cc([C@H]3[C@@H]4CN(C5COC5)C[C@@H]43)n(C3CCCC3)n2)cc1OC(F)(F)F [Compound 166, 5-(1-cyclopentyl-5-((1R,5S,6r)-3-(oxe-tan-3-yl)-3-azabicyclo[3.1.0]hexan-6-yl)-1H-pyrazol-3-yl)-3-(trifluoro-methoxy)pyridin-2-amine] | 0.0047 µM
Nc1ncc(-c2cc([C@H]3[C@@H]4CN(C5COC5)C[C@@H]43)n(C3CC3)n2)cc1C(F)F [Compound 170, 5-(1-cyclopropyl-5-((1R,5S,6r)-3-(oxe-tan-3-yl)-3-azabicyclo[3.1.0]hexan-6-yl)-1H-pyrazol-3-yl)-3-(difluoro-methyl)pyridin-2-amine] | 0.012 µM
Nc1ncc(-c2cc([C@H]3[C@@H]4CN(C5COC5)C[C@@H]43)n(C3CCCC3)n2)cc1C(F)F [Compound 171, 5-(1-cyclopentyl-5-((1R,5S,6r)-3-(oxe-tan-3-yl)-3-azabicyclo[3.1.0]hexan-6-yl)-1H-pyrazol-3-yl)-3-(difluoro-methyl)pyridin-2-amine] | 0.016 µM
